Entries after “also recorded” stand apart in the source; their conditions may differ.
Key:
[1] = Oral absorption in fasting human volunteers (syrup): serum ticarcillin, AUC and urinary excretion by bio-assay, Experiments A-D; assay type: in vivo
Description: To obtain the results shown in table 1, the two esters of ticarcillin were each given to a panel of fasting human volunteers in a syrup formulation in an amount equivalent to provide either 200 or 400 mg (as stated in table 1) of the free ticarcillin after the expected in vivo hydrolysis. Periodic blood samples were taken from the volunteers and each assayed for ticarcillin content by a standard bio-assay technique. The urine excreted by each volunteer within the 6 hours following administration was also collected and assayed for the free ticarcillin. All three parameters (viz the urinary excretion level, the peak serum concentration achieved and the total area under the curve when the serum concentration is plotted against time) are indications of the minimum degree to which the penicillin ester has been absorbed after oral administration and then hydrolysed in vivo.

[2] = Intact ester in blood and urine after oral administration to human volunteers; assay type: in vivo; details: urine, read-out: ester present in urine
[3] = in words; cited from earlier work
[4] = Oral administration as syrup equivalent to 400 mg ticarcillin, phenyl vs p-tolyl ester (data of British Pat. No. 1,455,529); assay type: in vivo, man
From the text: The improved bioavailability can also be seen from the individual mean serum concentration figures in table 1. […] This can be seen by the comparison with the phenyl ester and for convenience the data from specification No. 1,455,529 is repeated in table 3 below:
(Administration as syrup containing equivalent

urinary recovery of ticarcillin compared to the phenyl ester ([1]; in words)	bioavailability as measured by AUC higher than for the phenyl ester ([1]; o-tolyl vs phenyl ester, oral, man, overall)	oral absorption compared to the ortho ester ([4]; in words, p-tolyl vs α-ortho ester)	statistical significance of differences in mean serum concentrations ([4]; p-tolyl vs phenyl ester, table 3)	Compound	bioavailability of ticarcillin after oral administration compared to the phenyl ester ([1]; in words, AUC, listed as α-ortho-tolyl ester)	dose excreted at 6 h [2]	oral absorption in man [3]
greater urinary recovery	120-220%	–	–	Cc1ccccc1OC(=O)C(C(=O)N[C@@H]1C(=O)N2[C@@H]1SC(C)(C)[C@@H]2C(=O)O)c1ccsc1 (stereo partly drawn) [o-tolyl, 6β-[2-(2'-methylphenoxycarbonyl)-2-thien-3'-ylacetamido]penicillanic acid]	considerably greater; also recorded: two- to three-fold greater	~2%	–
–	–	–	–	CC1(C)S[C@@H]2[C@H](NC(=O)C(C(=O)Oc3ccccc3)c3ccsc3)C(=O)N2[C@H]1C(=O)O (stereo partly drawn) [phenyl, α-phenyl ester of α-carboxy-3-thienylmethyl penicillin, reference compound]	–	~1%	–
–	–	much less well absorbed	not statistically significant	Cc1ccc(OC(=O)C(C(=O)N[C@@H]2C(=O)N3[C@@H]2SC(C)(C)[C@@H]3C(=O)O)c2ccsc2)cc1 (stereo partly drawn) [p-tolyl, α-para-tolyl mono-ester of α-carboxy-3-thienylmethyl penicillin]	–	–	high degree of oral absorption in man

From patent US4385060A, “Penicillins” (Beecham Group Limited, priority 1979, dated 1983)
